Format in all cases: functional
In assay [1] the test system is Pseudomonas aeruginosa. As to the kind of experiment: Antibacterial activity against VIM-1 producing Pseudomonas aeruginosa clone A1 isolate FG-17X-14 by Etest method.
In assay [2] the test system is Pseudomonas aeruginosa. As to the kind of experiment: Antibacterial activity against VIM-2 producing Pseudomonas aeruginosa clone B3 isolate PV-05X-07 by Etest method.
For assay [3], the system named is Pseudomonas aeruginosa. As to the kind of experiment: Antibacterial activity against IMP-13 producing Pseudomonas aeruginosa clone C3 isolate PG-12X-03 by Etest method.
The test system of assay [4] is Pseudomonas aeruginosa. As to the kind of experiment: Antibacterial activity against VIM-1 producing Pseudomonas aeruginosa clone A3 isolate NA-14X-34 by Etest method.
Assay [5] relates to Pseudomonas aeruginosa. Description: Antibacterial activity against VIM-1 producing Pseudomonas aeruginosa clone A2 isolate NA-14X-32 by Etest method.
Assay [6] concerns Pseudomonas aeruginosa. Description: Antibacterial activity against IMP-13 producing Pseudomonas aeruginosa clone C2 isolate NA-14X-02 by Etest method.
For assay [7], the system named is Pseudomonas aeruginosa. Description: Antibacterial activity against IMP-13 producing Pseudomonas aeruginosa clone C2 isolate NA-14X-12 by Etest method.
Assay [8] concerns Pseudomonas aeruginosa. As to the kind of experiment: Antibacterial activity against VIM-2 producing Pseudomonas aeruginosa clone B3 isolate PV-05X-02 by Etest method.
Assay [9] concerns Pseudomonas aeruginosa. As to the kind of experiment: Antibacterial activity against VIM-2 producing Pseudomonas aeruginosa clone B2 isolate VA-06X-38 by Etest method.
The test system of assay [10] is Pseudomonas aeruginosa. Description: Antibacterial activity against IMP-13 producing Pseudomonas aeruginosa clone C1 isolate AV-13X-28 by Etest method.
The test system of assay [11] is Pseudomonas aeruginosa. As to the kind of experiment: Antibacterial activity against VIM-2 producing Pseudomonas aeruginosa clone B2 isolate VA-06X-20 by Etest method.
In assay [12] the test system is Pseudomonas aeruginosa. Description: Antibacterial activity against VIM-2 producing Pseudomonas aeruginosa clone B1 isolate SS-09X-45 by Etest method.
Assay [13] concerns Pseudomonas aeruginosa. Description: Antibacterial activity against VIM-1 producing Pseudomonas aeruginosa clone D4 isolate VA-06X-47 by Etest method.
The subject of the next assay is Pseudomonas putida. Description: Antibacterial activity against VIM-1 producing Pseudomonas putida isolate RM-11X-11 by Etest method.
The subject of assay [14] is Pseudomonas aeruginosa. As to the kind of experiment: Antibacterial activity against VIM-1 producing Pseudomonas aeruginosa clone E isolate VA-06X-29 by Etest method.
The test system of assay [15] is Pseudomonas aeruginosa. As to the kind of experiment: Antibacterial activity against VIM-1 producing Pseudomonas aeruginosa clone F isolate RM-11X-09 by Etest method.
The next assay deals with Enterobacter cloacae. Description: Antibacterial activity against VIM-1 producing Enterobacter cloacae isolate TO-16X-51 by Etest method.
For assay [16], the system named is Pseudomonas aeruginosa. As to the kind of experiment: Antibacterial activity against VIM-1 producing Pseudomonas aeruginosa clone D isolate VA-06X-69 by Etest method.
Assay [17] deals with Pseudomonas aeruginosa. Description: Antibacterial activity against VIM-1 producing Pseudomonas aeruginosa clone D2 isolate VA-06X-16 by Etest method.
Assay [18] relates to Pseudomonas aeruginosa. Description: Antibacterial activity against VIM-1 producing Pseudomonas aeruginosa clone D3 isolate VA-06X-65 by Etest method.
Assay [19] has as its system Pseudomonas aeruginosa. As to the kind of experiment: Antibacterial activity against VIM-1 producing Pseudomonas aeruginosa clone A2 isolate NA-14X-26 by Etest method.
The test system of assay [20] is Pseudomonas aeruginosa. As to the kind of experiment: Antibacterial activity against VIM-2 producing Pseudomonas aeruginosa clone B3 isolate CR-04X-14 by Etest method.
Assay [21] concerns Pseudomonas aeruginosa. Description: Antibacterial activity against VIM-2 producing Pseudomonas aeruginosa clone B2 isolate VA-06X-28 by Etest method.
In assay [22] the test system is Pseudomonas aeruginosa. Description: Antibacterial activity against IMP-13 producing Pseudomonas aeruginosa clone C2 isolate NA-14X-11 by Etest method.
In assay [23] the test system is Pseudomonas aeruginosa. Description: Antibacterial activity against IMP-13 producing Pseudomonas aeruginosa clone C2 isolate NA-14X-10 by Etest method.
Assay [24] deals with Pseudomonas aeruginosa. As to the kind of experiment: Antibacterial activity against VIM-1 producing Pseudomonas aeruginosa clone A3 isolate FG-17X-08 by Etest method.
Assay [25] has as its system Pseudomonas aeruginosa. Description: Antibacterial activity against VIM-1 producing Pseudomonas aeruginosa clone D1 isolate VA-06X-63 by Etest method.
Assay [26] relates to Pseudomonas aeruginosa. Description: Antibacterial activity against VIM-1 producing Pseudomonas aeruginosa clone D2 isolate VA-06X-17 by Etest method.
The test system of assay [27] is Pseudomonas aeruginosa. As to the kind of experiment: Antibacterial activity against VIM-1 producing Pseudomonas aeruginosa clone G isolate NA-14X-13 by Etest method.
Assay [28] concerns Pseudomonas aeruginosa. Description: Antibacterial activity against VIM-1 producing Pseudomonas aeruginosa clone A2 isolate NA-14X-21 by Etest method.

Values after ≈ are worked out from the molar mass of the structure shown.

As usually defined, the MIC is the lowest concentration that inhibits growth of the organism. For the molecule `CC(C)(O/N=C(\C(=O)N[C@@H]1C(=O)N2C(C(=O)[O-])=C(C[n+]3ccccc3)CS[C@H]12)c1csc(N)n1)C(=O)O` [CEFTAZIDIME], the minimum inhibitory concentration (MIC) with Pseudomonas aeruginosa [1] was over 128 µg/mL; in the assay with Pseudomonas aeruginosa [2] it was 32 µg/mL (≈ 58.5 µM); in the assay on Pseudomonas aeruginosa [3], over 128 µg/mL; with Pseudomonas aeruginosa [4], over 128 µg/mL; against Pseudomonas aeruginosa [5], over 128 µg/mL; in the assay with Pseudomonas aeruginosa [6], over 128 µg/mL. Also, the MIC is over 128 µg/mL with Pseudomonas aeruginosa [7]; 32 µg/mL (≈ 58.5 µM) with Pseudomonas aeruginosa [8]; 48 µg/mL (≈ 87.8 µM) with Pseudomonas aeruginosa [9]; over 128 µg/mL in the assay on Pseudomonas aeruginosa [10]; 64 µg/mL (≈ 117 µM) in the assay with Pseudomonas aeruginosa [11]; over 128 µg/mL against Pseudomonas aeruginosa [12]. The MIC in the assay with Pseudomonas aeruginosa [13], in the assay with Pseudomonas putida, against Pseudomonas aeruginosa [14], against Pseudomonas aeruginosa [15], in the assay with Enterobacter cloacae and in the assay with Pseudomonas aeruginosa [16] was over 128 µg/mL each time. Besides, the MIC in the assay with Pseudomonas aeruginosa [17] was over 128 µg/mL; in the assay on Pseudomonas aeruginosa [18] it was over 128 µg/mL; against Pseudomonas aeruginosa [19], over 128 µg/mL; against Pseudomonas aeruginosa [20], 64 µg/mL (≈ 117 µM); with Pseudomonas aeruginosa [21], 64 µg/mL (≈ 117 µM); in the assay with Pseudomonas aeruginosa [22], over 128 µg/mL. Besides, the MIC in the assay on Pseudomonas aeruginosa [23], in the assay on Pseudomonas aeruginosa [24], with Pseudomonas aeruginosa [25], against Pseudomonas aeruginosa [26], against Pseudomonas aeruginosa [27] and in the assay on Pseudomonas aeruginosa [28] was over 128 µg/mL in each case.
For the molecule GENTAMICIN, the MIC with Pseudomonas aeruginosa [1] is over 128 µg/mL; with Pseudomonas aeruginosa [2], 8 µg/mL; with Pseudomonas aeruginosa [3], over 128 µg/mL; in the assay with Pseudomonas aeruginosa [4], over 128 µg/mL; in the assay on Pseudomonas aeruginosa [5] it was over 128 µg/mL; against Pseudomonas aeruginosa [6] it was over 128 µg/mL. For the same molecule, the MIC is over 128 µg/mL in the assay with Pseudomonas aeruginosa [7]; 8 µg/mL with Pseudomonas aeruginosa [8]; 8 µg/mL in the assay with Pseudomonas aeruginosa [9]; over 128 µg/mL in the assay with Pseudomonas aeruginosa [10]; 8 µg/mL against Pseudomonas aeruginosa [11]; over 128 µg/mL against Pseudomonas aeruginosa [12]. Also, the minimum inhibitory concentration (MIC) is over 128 µg/mL in the assay on Pseudomonas aeruginosa [13]; 4 µg/mL in the assay on Pseudomonas putida; over 128 µg/mL in the assay with Pseudomonas aeruginosa [14]; over 128 µg/mL against Pseudomonas aeruginosa [15]; 2 µg/mL in the assay with Enterobacter cloacae; over 128 µg/mL against Pseudomonas aeruginosa [16]. Also, the MIC was over 128 µg/mL in the assay with Pseudomonas aeruginosa [17]; over 128 µg/mL in the assay on Pseudomonas aeruginosa [18]; over 128 µg/mL in the assay on Pseudomonas aeruginosa [19]; 8 µg/mL with Pseudomonas aeruginosa [20]; 8 µg/mL in the assay with Pseudomonas aeruginosa [21]; over 128 µg/mL in the assay with Pseudomonas aeruginosa [22]. For the same molecule, the MIC in the assay with Pseudomonas aeruginosa [23], with Pseudomonas aeruginosa [24], against Pseudomonas aeruginosa [25], in the assay with Pseudomonas aeruginosa [26], in the assay on Pseudomonas aeruginosa [27] and against Pseudomonas aeruginosa [28] was over 128 µg/mL throughout.
For `O=C(O)c1cn(C2CC2)c2cc(N3CCNCC3)c(F)cc2c1=O` [CIPROFLOXACIN], the MIC against Pseudomonas putida turned out to be 0.06 µg/mL (≈ 0.181 µM).
In the case of COLISTIN, the minimum inhibitory concentration (MIC) turned out to be 1 µg/mL against Pseudomonas aeruginosa [1]; 1 µg/mL in the assay on Pseudomonas aeruginosa [2]; 0.5 µg/mL in the assay with Pseudomonas aeruginosa [3]; 2 µg/mL in the assay on Pseudomonas aeruginosa [4]; 2 µg/mL against Pseudomonas aeruginosa [5]; 0.5 µg/mL with Pseudomonas aeruginosa [6]. Further, the MIC in the assay on Pseudomonas aeruginosa [7] was found to be 0.5 µg/mL; against Pseudomonas aeruginosa [8], 1 µg/mL; with Pseudomonas aeruginosa [9], 1 µg/mL; with Pseudomonas aeruginosa [10], 2 µg/mL; against Pseudomonas aeruginosa [11] it was 1 µg/mL; against Pseudomonas aeruginosa [12], 2 µg/mL. The MIC against Pseudomonas aeruginosa [13] was 1 µg/mL; in the assay on Pseudomonas putida, 0.25 µg/mL; in the assay with Pseudomonas aeruginosa [14] it was 2 µg/mL; with Pseudomonas aeruginosa [15] it was 1 µg/mL; against Enterobacter cloacae, 0.25 µg/mL; in the assay on Pseudomonas aeruginosa [16], 1 µg/mL. In addition, the MIC with Pseudomonas aeruginosa [17] turned out to be 1 µg/mL; in the assay with Pseudomonas aeruginosa [18] it was 0.5 µg/mL; in the assay on Pseudomonas aeruginosa [19], 2 µg/mL; against Pseudomonas aeruginosa [20], 2 µg/mL; with Pseudomonas aeruginosa [21], 1 µg/mL; with Pseudomonas aeruginosa [22] it was 0.5 µg/mL. In addition, the MIC in the assay on Pseudomonas aeruginosa [23] came out at 0.5 µg/mL; in the assay with Pseudomonas aeruginosa [24], 0.5 µg/mL; against Pseudomonas aeruginosa [25], 1 µg/mL; in the assay with Pseudomonas aeruginosa [26], 1 µg/mL; in the assay on Pseudomonas aeruginosa [27], 2 µg/mL; in the assay on Pseudomonas aeruginosa [28], 2 µg/mL.

The record behind these values is ChEMBL document CHEMBL1275557, “First countrywide survey of acquired metallo-beta-lactamases in gram-negative pathogens in Italy” (2008).
